Bridge positions count the residues as written; N and C are the ends. Square brackets hold non-standard residues; d marks the D form. Peptide text beside a SMILES is read from it. Hyp = O=C(O)[C@@H]1C[C@@H](O)CN1; Cit = NC(=O)NCCC[C@H](N)C(=O)O
Experiments:
[1] = Physical stability of peptide analogues (Thioflavin T fibrillation); assay type: physicochemical; conditions: maximum ThT signal normalized between hAMY maximum and buffer background; 40° C., shaking, four days; pH 7 per table title
Method in brief: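 1 h in 50 mM NaOAc pH 4 / 50 mM NaPi pH 7; + ThT 4 μM final; 40 °C, 700 rpm linear shake 5 min pre-read; ex 450, em 480 nm q10 min × 4 d; LOESS smoothing; max signal normalised to hAMY max vs buffer blank.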

hAMY3 receptor = biological target: T1, hAMY3 receptor (Homo sapiens, UniProt O60896+P30988); assay: cAMP assay for in vitro receptor activation, hAMY3-R; assay type: cell-based; conditions: cAMP assay, hAMY3 receptor; read-out: hAMY3R EC50
T1 sequence (P30988 25-474): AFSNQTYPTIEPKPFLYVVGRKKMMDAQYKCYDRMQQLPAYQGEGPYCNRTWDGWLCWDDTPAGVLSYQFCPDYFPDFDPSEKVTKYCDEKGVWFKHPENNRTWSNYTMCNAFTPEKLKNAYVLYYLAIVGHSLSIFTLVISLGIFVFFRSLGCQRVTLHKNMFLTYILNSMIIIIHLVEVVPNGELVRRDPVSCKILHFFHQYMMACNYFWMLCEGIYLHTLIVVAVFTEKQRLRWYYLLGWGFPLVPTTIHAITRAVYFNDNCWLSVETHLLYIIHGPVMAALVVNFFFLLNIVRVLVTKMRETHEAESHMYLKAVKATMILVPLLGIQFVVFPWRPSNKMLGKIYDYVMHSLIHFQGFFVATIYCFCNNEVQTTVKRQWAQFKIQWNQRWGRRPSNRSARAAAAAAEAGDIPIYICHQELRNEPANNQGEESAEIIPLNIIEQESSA
T1 sequence (O60896 24-148 partner): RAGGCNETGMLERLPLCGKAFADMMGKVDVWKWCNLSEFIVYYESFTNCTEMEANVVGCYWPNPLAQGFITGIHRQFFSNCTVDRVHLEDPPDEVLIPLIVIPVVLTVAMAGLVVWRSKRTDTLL
Method in brief: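 Graded compound concentrations were applied for 30 min at room temperature to stably hAMY3-expressing cells in DPBS, 0.05% casein, 0.5 mM IBMX; cAMP detected by TR-FRET.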

hAM1 receptor = hAM1 receptor (Homo sapiens, UniProt O60895+Q16602); assay: cAMP assay for in vitro receptor activation, hAM1-R; assay type: cell-based; conditions: cAMP assay, hAM1 receptor; read-out: hAM1R EC50
Method in brief: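 Monoclonal stable hAM1-overexpressing cells, thawed from frozen stock; 8000 cells/well in DPBS + 0.05% casein + 0.5 mM IBMX; read-out cAMP.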

Sequence of hAM1 receptor (Q16602 23-461): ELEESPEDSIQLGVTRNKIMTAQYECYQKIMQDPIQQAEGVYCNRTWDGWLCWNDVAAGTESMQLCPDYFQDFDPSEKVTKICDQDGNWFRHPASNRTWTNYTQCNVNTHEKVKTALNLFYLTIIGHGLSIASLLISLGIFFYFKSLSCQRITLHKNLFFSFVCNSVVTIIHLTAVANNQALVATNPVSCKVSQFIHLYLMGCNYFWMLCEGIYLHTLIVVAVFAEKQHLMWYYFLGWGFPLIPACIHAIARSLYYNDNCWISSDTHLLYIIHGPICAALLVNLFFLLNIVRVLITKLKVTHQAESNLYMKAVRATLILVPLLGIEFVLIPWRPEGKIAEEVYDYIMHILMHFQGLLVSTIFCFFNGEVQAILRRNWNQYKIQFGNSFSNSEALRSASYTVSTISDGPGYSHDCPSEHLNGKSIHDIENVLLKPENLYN
Sequence of hAM1 receptor (O60895 43-175 partner): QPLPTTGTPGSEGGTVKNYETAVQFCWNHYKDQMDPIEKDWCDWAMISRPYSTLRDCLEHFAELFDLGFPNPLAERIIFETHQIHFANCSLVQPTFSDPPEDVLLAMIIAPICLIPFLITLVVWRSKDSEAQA

Row | SMILES | Max ThT signal (%) [1] [%] | EC50 (hAMY3 receptor) [nM] | EC50 (hAM1 receptor) [nM]
1 | CC[C@H](C)[C@H](NC(=O)[C@H](CCC(N)=O)NC(=O)[C@H](Cc1c[nH]cn1)NC(=O)[C@H](C)NC(=O)[C@H](CC(C)C)NC(=O)[C@H](Cc1c[nH]c2ccccc12)NC(=O)[C@H](CCC(N)=O)NC(=O)[C@@H](NC(=O)[C@@H](NC(=O)[C@@H]1CSSC[C@H](NC(=O)[C@@H](N)CCCCN)C(=O)N[C@@H](CC(N)=O)C(=O)N[C@@H]([C@@H](C)O)C(=O)N[C@@H](C)C(=O)N[C@@H]([C@@H](C)O)C(=O)N1)[C@@H](C)O)C(C)C)C(=O)N[C@@H](Cc1ccc(O)cc1)C(=O)N[C@@H](CCC(N)=O)C(=O)N[C@@H](Cc1ccccc1)C(=O)N[C@H](C(=O)N[C@@H](CC(=O)O)C(=O)N[C@@H](C)C(=O)N[C@@H](CC(=O)O)C(=O)N[C@@H](CCCCN)C(=O)N[C@@H](CC(=O)O)C(=O)N[C@@H](CC(N)=O)C(=O)N[C@H](C(=O)N[C@@H](C)C(=O)N1CCC[C@H]1C(=O)N1CCC[C@H]1C(=O)N[C@H](C(=O)N[C@@H](CC(N)=O)C(=O)N[C@H](C(=O)NCC(=O)N[C@@H](CO)C(=O)N[C@@H](CC(N)=O)C(=O)NCC(=O)N1C[C@H](O)C[C@H]1C(N)=O)C(C)C)[C@@H](C)O)C(C)C)[C@@H](C)O [compound 328] (H-KCNTATCTVQWLAHQIYQFTDADKDNVAPPTNVGSNG[Hyp]-NH2; disulfide 2-7; N-terminus assumed) | 33.250 | 0.01 | > 5000
2 | CC[C@H](C)[C@H](NC(=O)[C@H](CCC(N)=O)NC(=O)[C@H](Cc1c[nH]cn1)NC(=O)[C@H](C)NC(=O)[C@H](CC(C)C)NC(=O)[C@H](CCCNC(N)=O)NC(=O)[C@H](CCC(N)=O)NC(=O)[C@@H](NC(=O)[C@@H](NC(=O)[C@@H]1CSSC[C@H](NC(=O)[C@@H](N)CCCCN)C(=O)N[C@@H](CC(N)=O)C(=O)N[C@@H]([C@@H](C)O)C(=O)N[C@@H](C)C(=O)N[C@@H]([C@@H](C)O)C(=O)N1)[C@@H](C)O)C(C)C)C(=O)N[C@@H](Cc1ccc(O)cc1)C(=O)N[C@@H](CCC(N)=O)C(=O)N[C@@H](Cc1ccccc1)C(=O)N[C@H](C(=O)N[C@@H](CC(=O)O)C(=O)N[C@@H](CCCCN)C(=O)N[C@@H](CC(=O)O)C(=O)N[C@@H](CCCCN)C(=O)N[C@@H](CC(=O)O)C(=O)N[C@@H](CC(N)=O)C(=O)N[C@@H](C)C(=O)N[C@@H](C)C(=O)N1CCC[C@H]1C(=O)N1CCC[C@H]1C(=O)N[C@H](C(=O)N[C@@H](CC(N)=O)C(=O)N[C@H](C(=O)NCC(=O)N[C@@H](CO)C(=O)N[C@@H](CC(N)=O)C(=O)NCC(=O)N1C[C@H](O)C[C@H]1C(N)=O)C(C)C)[C@@H](C)O)[C@@H](C)O [compound 251] (H-KCNTATCTVQ[Cit]LAHQIYQFTDKDKDNAAPPTNVGSNG[Hyp]-NH2; disulfide 2-7; N-terminus assumed) | 10.600 | 0.006 | > 5000
3 | CC[C@H](C)[C@H](NC(=O)[C@H](CCC(N)=O)NC(=O)[C@H](Cc1c[nH]cn1)NC(=O)[C@H](C)NC(=O)[C@H](CC(C)C)NC(=O)[C@H](Cc1c[nH]c2ccccc12)NC(=O)[C@H](CCC(N)=O)NC(=O)[C@@H](NC(=O)[C@@H](NC(=O)[C@@H]1CSSC[C@H](NC(=O)CN)C(=O)N[C@@H](CCCNC(=N)N)C(=O)N[C@@H]([C@@H](C)O)C(=O)NCC(=O)N[C@@H]([C@@H](C)O)C(=O)N1)[C@@H](C)O)C(C)C)C(=O)N[C@@H](Cc1ccc(O)cc1)C(=O)N[C@@H](CCC(N)=O)C(=O)N[C@@H](Cc1ccccc1)C(=O)N[C@H](C(=O)N[C@@H](CC(=O)O)C(=O)N[C@@H](CCCCN)C(=O)N[C@@H](CC(=O)O)C(=O)N[C@@H](CCCCN)C(=O)N[C@@H](CC(=O)O)C(=O)N[C@@H](CC(N)=O)C(=O)N[C@H](C(=O)N[C@@H](C)C(=O)N1CCC[C@H]1C(=O)N[C@@H](CCCNC(=N)N)C(=O)N[C@H](C(=O)N[C@@H](CC(N)=O)C(=O)N[C@H](C(=O)NCC(=O)N1CCC[C@H]1C(=O)N[C@@H](CC(N)=O)C(=O)NCC(=O)N[C@@H](Cc1ccc(O)cc1)C(N)=O)C(C)C)[C@@H](C)O)C(C)C)[C@@H](C)O [compound 332] (H-GCRTGTCTVQWLAHQIYQFTDKDKDNVAPRTNVGPNGY-NH2; disulfide 2-7; N-terminus assumed) | 2.100 | 0.007 | > 5000

The next lines start with the values.

Row | Max ThT signal (%) [1] [%] | EC50 (hAMY3 receptor) [nM] | EC50 (hAM1 receptor) [nM] | SMILES
4 | 8.200 | 0.008 | > 5000 | CC[C@H](C)[C@H](NC(=O)[C@H](CCC(N)=O)NC(=O)[C@H](Cc1c[nH]cn1)NC(=O)[C@H](C)NC(=O)[C@H](CC(C)C)NC(=O)[C@H](CCCNC(=N)N)NC(=O)[C@H](CCC(N)=O)NC(=O)[C@@H](NC(=O)[C@@H](NC(=O)[C@@H]1CSSC[C@H](NC(=O)[C@@H](N)CCCCN)C(=O)N[C@@H](CC(N)=O)C(=O)N[C@@H]([C@@H](C)O)C(=O)N[C@@H](C)C(=O)N[C@@H]([C@@H](C)O)C(=O)N1)[C@@H](C)O)C(C)C)C(=O)N[C@@H](Cc1ccc(O)cc1)C(=O)N[C@@H](CCC(N)=O)C(=O)N[C@@H](Cc1ccccc1)C(=O)N[C@H](C(=O)N[C@@H](CC(=O)O)C(=O)N[C@@H](CCCCN)C(=O)N[C@@H](CC(=O)O)C(=O)N[C@@H](CCCCN)C(=O)N[C@@H](CC(=O)O)C(=O)N[C@@H](CC(N)=O)C(=O)N[C@H](C(=O)N[C@@H](C)C(=O)N1CCC[C@H]1C(=O)N[C@@H](C)C(=O)N[C@H](C(=O)N[C@@H](CC(N)=O)C(=O)N[C@H](C(=O)NCC(=O)N[C@@H](CO)C(=O)N[C@@H](CC(N)=O)C(=O)NCC(=O)N1C[C@H](O)C[C@H]1C(N)=O)C(C)C)[C@@H](C)O)C(C)C)[C@@H](C)O [compound 28] (H-KCNTATCTVQRLAHQIYQFTDKDKDNVAPATNVGSNG[Hyp]-NH2; disulfide 2-7; N-terminus assumed)
5 | 21.80 | 0.008 | > 5000 | CC[C@H](C)[C@H](NC(=O)[C@H](CCC(N)=O)NC(=O)[C@H](Cc1c[nH]cn1)NC(=O)[C@H](C)NC(=O)[C@H](CC(C)C)NC(=O)[C@H](CCCNC(=N)N)NC(=O)[C@H](CCC(N)=O)NC(=O)[C@@H](NC(=O)[C@@H](NC(=O)[C@@H]1CSSC[C@H](NC(=O)[C@@H](N)CCCCN)C(=O)N[C@@H](CC(N)=O)C(=O)N[C@@H]([C@@H](C)O)C(=O)N[C@@H](C)C(=O)N[C@@H]([C@@H](C)O)C(=O)N1)[C@@H](C)O)C(C)C)C(=O)N[C@@H](Cc1ccc(O)cc1)C(=O)N[C@@H](CCC(N)=O)C(=O)N[C@@H](Cc1ccccc1)C(=O)N[C@H](C(=O)N[C@@H](CC(=O)O)C(=O)N[C@@H](CCCCN)C(=O)N[C@@H](CC(=O)O)C(=O)N[C@@H](CCCCN)C(=O)N[C@@H](CC(=O)O)C(=O)N[C@@H](CC(N)=O)C(=O)N[C@@H](C)C(=O)N[C@@H](C)C(=O)N1CCC[C@H]1C(=O)N1CCC[C@H]1C(=O)N[C@H](C(=O)N[C@@H](CC(N)=O)C(=O)N[C@H](C(=O)NCC(=O)N[C@@H](CO)C(=O)N[C@@H](CC(N)=O)C(=O)NCC(=O)N1C[C@H](O)C[C@H]1C(N)=O)C(C)C)[C@@H](C)O)[C@@H](C)O [compound 27] (H-KCNTATCTVQRLAHQIYQFTDKDKDNAAPPTNVGSNG[Hyp]-NH2; disulfide 2-7; N-terminus assumed)

— patent US12139520B2 (priority 2020, dated 2024)
